Common to all, as to format: cell-based
Experiment [1] concerns organisms known to cause vascular access catheter-related infections. Nature of the experiment: Antibacterial activity of anticancer agents.
Experiment [2] has as its system P. aeruginosa PAE/K799 H187. Nature of the experiment: MIC determination by microtitre broth dilution. Particulars: for Minimum Inhibitory Concentrations: P. aeruginosa PAE/K799 H187, wt, Gram−, Mueller Hinton broth, 37° C., 24 h. On the procedure:
(§1) A. MIC assay of various gram negative and positive bacteria MIC assays were conducted essentially as described by Amsterdam, D. 1996. Susceptibility testing of antimicrobials in liquid media, p. 52-111. In Loman, V., ed. Antibiotics in laboratory medicine, 4th ed. Williams and Wilkins, Baltimore, Md.

The subject of experiment [3] is E. coli UB1005 C498. In words: MIC determination by microtitre broth dilution. As to conditions: for Minimum Inhibitory Concentrations: E. coli UB1005 C498, wt, Gram−, Mueller Hinton broth, 37° C., 24 h. Here is the method: as §1
For experiment [4], the system named is S. aureus ATCC25923 C622. Nature of the experiment: MIC determination by microtitre broth dilution. As to conditions: S. aureus ATCC25923 C622, wt, Gram+; Mueller Hinton broth, 37° C., 24 h. Here is the method:
as §1

The subject of experiment [5] is K. pneumoniae ATCC13883 C238. In words: MIC determination by microtitre broth dilution. Particulars: for Minimum Inhibitory Concentrations: K. pneumoniae ATCC13883 C238, wt, Gram−, Mueller Hinton broth, 37° C., 24 h. On the procedure:
as §1
(In general: Dilution methods test growth across graded concentrations, often in twofold steps.)

For experiment [6], the system named is S. epidermidis C621. In words: MIC determination by microtitre broth dilution. As to conditions: S. epidermidis C621, wt, Gram+; Mueller Hinton broth, 37° C., 24 h. On the procedure: as §1
Experiment [7] deals with S. pyogenes C721. Nature of the experiment: MIC determination by microtitre broth dilution. As to conditions: S. pyogenes C721, wt, Gram+; Todd Hewitt broth, 37° C., 24 h. On the procedure:
as §1

Turning to `Sc1ncc2[nH]cnc2n1` [2-mercaptopurine], in experiment [1], the “antibacterial activity against the organisms known to cause vascular access catheter-related infections” value (“antibacterial activity” below) is “did not have antibacterial activity”. For the same compound, the “Minimum Inhibitory Concentrations” value in experiment [2], in experiment [3], in experiment [4], in experiment [5], in experiment [6] and in experiment [7] was “N” throughout.

For the compound `O=c1[nH]cc(F)c(=O)[nH]1` [5-fluorouracil, 5-Fluorouracil], the “activity against Pseudomonas aeruginosa” value in experiment [2] is listed as “have activity”. In addition, the “Minimum Inhibitory Concentrations” value in experiment [2] is listed as 10^−5 Molar; in experiment [3], 10^−6 Molar; in experiment [4], 10^−7 Molar; in experiment [5], 10^−6 Molar; in experiment [6] it was 10^−7 Molar; in experiment [7], 10^−4 Molar. Also, the “activity against Escheridia coli” value in experiment [3] is reported as “have activity”.

Turning to `Sc1ncnc2nc[nH]c12` [6-mercaptopurine], the “antibacterial activity” value in experiment [1] was “did not have antibacterial activity”. Also, the “Minimum Inhibitory Concentrations” value in experiment [2], in experiment [3], in experiment [4], in experiment [5], in experiment [6] and in experiment [7] was “N” throughout.

As to `Nc1ccn([C@@H]2O[C@H](CO)[C@@H](O)[C@@H]2O)c(=O)n1` [Cytarabine], the “antibacterial activity” value in experiment [1] was “did not have antibacterial activity”. Moreover, the “Minimum Inhibitory Concentrations” value in experiment [2], in experiment [3], in experiment [4], in experiment [5], in experiment [6] and in experiment [7] was “N” in each case.

As for `CC[C@@]1(O)C(=O)OCc2c1cc1n(c2=O)Cc2cc3ccccc3nc2-1` [camptothecin, Camptothecin], in experiment [1], the “antibacterial activity” value is reported as “did not have antibacterial activity”. The “Minimum Inhibitory Concentrations” value in experiment [2] is “N”; in experiment [3], “N”; in experiment [4], “N”; in experiment [5], “N”; in experiment [6] it was 10^−4 Molar; in experiment [7] it was “N”.

On to `COc1cccc2c1C(=O)c1c(O)c3c(c(O)c1C2=O)C[C@@](O)(C(=O)CO)C[C@@H]3O[C@H]1C[C@H](N)[C@H](O)[C@H](C)O1` [doxorubicin, Doxorubicin], for which the “activity against Pseudomonas aeruginosa” value in experiment [2] is given as “have activity”. The “Minimum Inhibitory Concentrations” value in experiment [2] is 10^−5 Molar; in experiment [3], 10^−4 Molar; in experiment [4], 10^−5 Molar; in experiment [5], 10^−6 Molar; in experiment [6], 10^−6 Molar; in experiment [7], 10^−7 Molar. Besides, the “activity against Escheridia coli” value in experiment [3] is “have activity”.

`COc1cc([C@@H]2c3cc4c(cc3[C@@H](O[C@@H]3O[C@@H]5CO[C@@H](C)O[C@H]5[C@H](O)[C@H]3O)[C@H]3COC(=O)[C@H]23)OCO4)cc(OC)c1O` [etoposide, Etoposide]: the “Minimum Inhibitory Concentrations” value in experiment [2] is “N”; in experiment [3] it was “N”; in experiment [4], 10^−5 Molar; in experiment [5], 10^−5 Molar; in experiment [6] it was 10^−6 Molar; in experiment [7], 10^−5 Molar.

As for `NC(=O)NO` [hydroxyurea], in experiment [1], the “antibacterial activity” value is on record as “did not have antibacterial activity”. Further, the “activity against Pseudomonas aeruginosa” value in experiment [2] is listed as “some activity”. The “Minimum Inhibitory Concentrations” value in experiment [2] is 10^−4 Molar; in experiment [3], “N”; in experiment [4], “N”; in experiment [5] it was “N”; in experiment [6], “N”; in experiment [7], 10^−4 Molar.

On to `CN(Cc1cnc2nc(N)nc(N)c2n1)c1ccc(C(=O)N[C@@H](CCC(=O)O)C(=O)O)cc1` [methotrexate, Methotrexate], for which the “Minimum Inhibitory Concentrations” value in experiment [2] was “N”; in experiment [3], “N”; in experiment [4], 10^−5 Molar; in experiment [5], 10^−6 Molar; in experiment [6], “N”; in experiment [7] it was 10^−6 Molar. For the same compound, the “activity against Klebsiella pneumoniae” value in experiment [5] is on record as “activity”.

On to `O=C1c2c(O)ccc(O)c2C(=O)c2c(NCCNCCO)ccc(NCCNCCO)c21` [mitoxantrone, Mitoxantrone], for which the “activity against Pseudomonas aeruginosa” value in experiment [2] is on record as “have activity”. For the same compound, the “Minimum Inhibitory Concentrations” value in experiment [2] was 10^−5 Molar; in experiment [3] it was 10^−5 Molar; in experiment [4], 10^−5 Molar; in experiment [5], 10^−6 Molar; in experiment [6], 10^−5 Molar; in experiment [7], 10^−6 Molar. In experiment [3], the “activity against Escheridia coli” value is “have activity”.

Regarding `CC(=O)O[C@H]1C(=O)[C@@]2(C)[C@H]([C@H](OC(=O)c3ccccc3)[C@]3(O)C[C@H](OC(=O)[C@H](O)[C@@H](NC(=O)c4ccccc4)c4ccccc4)C(C)=C1C3(C)C)[C@]1(OC(C)=O)CO[C@@H]1C[C@@H]2O` [paclitaxel], in experiment [1], the “antibacterial activity” value is recorded as “did not have antibacterial activity”.

Consider `Nc1ncnc2c1ccn2[C@@H]1O[C@H](CO)[C@@H](O)[C@H]1O` [tubercidin], for which the “antibacterial activity” value in experiment [1] is “did not have antibacterial activity”. Moreover, the “Minimum Inhibitory Concentrations” value in experiment [2], in experiment [3], in experiment [4], in experiment [5], in experiment [6] and in experiment [7] was “N” throughout.

Turning to Cisplatin, the “antibacterial activity” value in experiment [1] is “did not have antibacterial activity”. Further, the “activity against Pseudomonas aeruginosa” value in experiment [2] was “some activity”. The “Minimum Inhibitory Concentrations” value is given as 10^−4 Molar in experiment [2]; “N” in experiment [3]; “N” in experiment [4]; “N” in experiment [5]; “N” in experiment [6]; “N” in experiment [7].

The record behind these values is patent US8372420B2, “Compositions and methods for coating medical implants” (Angiotech International AG, priority 2002, dated 2013).
